Experimental data taken from patent US20230399312A1, “SUBSTITUTED PYRIMIDINES AND METHODS OF USE” (THERAVANCE BIOPHARMA R&D IP, LLC, priority 2020, published 2023).

Columns and labels:
[1] = target: T1, recombinant human ALK5 (TGF-βR1) protein (Homo sapiens, UniProt P36897); test: Biochemical ALK5 (TGF-βR1) assay to measure pKi (LANCE Ultra ULight kinase assay); settings: apparent pKi, converted from pIC50 by Cheng-Prusoff
T1 construct: purchased Life Technologies PR9075A
T1 sequence (P36897 34-503): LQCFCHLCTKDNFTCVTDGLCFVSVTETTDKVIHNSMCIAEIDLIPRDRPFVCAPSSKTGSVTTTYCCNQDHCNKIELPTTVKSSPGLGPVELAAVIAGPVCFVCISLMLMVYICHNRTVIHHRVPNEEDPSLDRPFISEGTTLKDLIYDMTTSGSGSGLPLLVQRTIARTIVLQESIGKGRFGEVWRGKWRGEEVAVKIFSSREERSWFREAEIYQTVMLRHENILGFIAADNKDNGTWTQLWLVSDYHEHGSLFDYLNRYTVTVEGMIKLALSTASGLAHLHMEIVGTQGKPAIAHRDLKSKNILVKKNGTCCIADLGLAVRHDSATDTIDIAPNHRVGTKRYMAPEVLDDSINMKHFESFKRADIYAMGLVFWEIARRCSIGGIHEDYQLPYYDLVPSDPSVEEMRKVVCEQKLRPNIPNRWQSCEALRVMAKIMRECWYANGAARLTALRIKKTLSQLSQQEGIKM
Summary of the method: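 Enzyme was preincubated with compound for 60 min at room temperature, then ATP (added from a 125 μM 5× stock with 2 mM DTT) started a 60 min reaction at 37 °C. EDTA plus Eu-anti-phospho-Topo2α (Thr1342) antibody stopped it; TR-FRET pIC50 values were converted to pKi by Cheng-Prusoff.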

[2] = system: TGF-β-stimulated SMAD3 phosphorylation in BEAS-2B cells; test: Cellular ALK5 potency assay, inhibition of TGF-β stimulated pSMAD3 formation in BEAS-2B cells; type: cell-based; settings: Homo sapiens, pSMAD3, TGF-β 10 ng/mL, read-out: BEAS2B pIC50 (converted)
Summary of the method: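 Read-out is AlphaLISA detection of phospho-SMAD3 in lysates of BEAS-2B human lung epithelial cells. Cells are exposed to compound for 1 hour, then to 10 ng/mL TGF-β (final) for 30 minutes. Values are pIC50 from concentration–response curves.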

SMILES	Ki [1] [nM]	IC50 [2] [nM]
Cc1cccc(-c2nccc(Nc3ccnc(Nc4cc(C(=O)O[C@H]5CCN(C)C5)cs4)n3)n2)n1 [Compound 345, [(3S)-1-methylpyrrolidin-3-yl] 5-[[4-[[2-(6-methyl-2-pyridyl)pyrimidin-4-yl]amino]pyrimidin-2-yl]amino]thiophene-3-carboxylate]	0.0398 to 0.316	25.1 to 158
Cc1cccc(-c2nccc(Nc3ccnc(Nc4ccc(NCCN5CCN(C(C)C)CC5)cc4)n3)n2)n1 [Compound 346, N2-[4-[2-(4-isopropylpiperazin-1-yl)ethylamino]phenyl]-N4-[2-(6-methyl-2-pyridyl)pyrimidin-4-yl]pyrimidine-2,4-diamine]	0.0398 to 0.316	25.1 to 158
CNCCn1cc(-c2ccc(Nc3nccc(Nc4ccnc(-c5cccc(C)n5)n4)n3)cc2)cn1 [Compound 347, N2-(4-(1-(2-(methylamino)ethyl)-1H-pyrazol-4-yl)phenyl)-N4-(2-(6-methylpyridin-2-yl)pyrimidin-4-yl)pyrimidine-2,4-diamine]	0.0398 to 0.316	25.1 to 158
COc1cc(N2CCOCC2)ccc1Nc1nccc(Nc2ccnc(-c3cccc(C)n3)n2)n1 [Compound 348, N2-(2-methoxy-4-morpholino-phenyl)-N4-[2-(6-methyl-2-pyridyl)pyrimidin-4-yl]pyrimidine-2,4-diamine]	3.98 to 31.6	200 to 1260
Cc1cccc(-c2nccc(Nc3ccnc(Nc4nc(C(=O)N5CCN[C@@H](CO)C5)cs4)n3)n2)n1 [Compound 349, [(3R)-3-(hydroxymethyl)piperazin-1-yl]-[2-[[4-[[2-(6-methyl-2-pyridyl)pyrimidin-4-yl]amino]pyrimidin-2-yl]amino]thiazol-4-yl]methanone]	0.398 to 3.16	200 to 1260
Cc1cccc(-c2nccc(Nc3ccnc(Nc4ccc(Cl)c(CN5CCSCC5)c4)n3)n2)n1 [Compound 350, N2-[4-chloro-3-(thiomorpholinomethyl)phenyl]-N4-[2-(6-methyl-2-pyridyl)pyrimidin-4-yl]pyrimidine-2,4-diamine]	0.398 to 3.16	25.1 to 158
Cc1cccc(-c2nccc(Nc3ccnc(Nc4ccc(C5COCCN5)cc4)n3)n2)n1 (centres unmarked) [Compound 351, N4-[2-(6-methyl-2-pyridyl)pyrimidin-4-yl]-N2-(4-morpholin-3-ylphenyl)pyrimidine-2,4-diamine]	0.0398 to 0.316	≤ 20
CNC1CCN(S(=O)(=O)c2ccc(Nc3nccc(Nc4ccnc(-c5cccc(C)n5)n4)n3)cc2)CC1 [Compound 352, N2-[4-[[4-(methylamino)-1-piperidyl]sulfonyl]phenyl]-N4-[2-(6-methyl-2-pyridyl)pyrimidin-4-yl]pyrimidine-2,4-diamine]	0.0398 to 0.316	25.1 to 158
CC(=O)N(CC1CNC1)c1ccc(Nc2nccc(Nc3ccnc(-c4cccc(C)n4)n3)n2)cc1 [Compound 353, N-(azetidin-3-ylmethyl)-N-[4-[[4-[[2-(6-methyl-2-pyridyl)pyrimidin-4-yl]amino]pyrimidin-2-yl]amino]phenyl]acetamide]	0.0398 to 0.316	25.1 to 158
Cc1nc(-c2nccc(Nc3ccnc(Nc4ccc(N5CCOCC5)cc4)n3)n2)ccc1F [Compound 354, N4-[2-(5-fluoro-6-methyl-2-pyridyl)pyrimidin-4-yl]-N2-(4-morpholinophenyl)pyrimidine-2,4-diamine]	0.398 to 3.16	25.1 to 158
Cc1cccc(-c2nccc(Nc3ccnc(Nc4ccc(NCCN5CCOCC5)cc4)n3)n2)n1 [Compound 355, N4-[2-(6-methyl-2-pyridyl)pyrimidin-4-yl]-N2-[4-(2-morpholinoethylamino)phenyl] pyrimidine-2,4-diamine]	0.398 to 3.16	25.1 to 158
Cc1cccc(-c2nccc(Nc3ccnc(Nc4ccc(-c5cnn(CCN(C)C)c5)cc4)n3)n2)n1 [Compound 356, N2-[4-[1-[2-(dimethylamino)ethyl]pyrazol-4-yl]phenyl]-N4-[2-(6-methyl-2-pyridyl)pyrimidin-4-yl]pyrimidine-2,4-diamine]	0.0398 to 0.316	25.1 to 158
Cc1cccc(-c2nccc(Nc3ccnc(Nc4cccc(NC(=O)C5CCN(C6CCOCC6)CC5)c4)n3)n2)n1 [Compound 357, N-[3-[[4-[[2-(6-methyl-2-pyridyl)pyrimidin-4-yl]amino]pyrimidin-2-yl]amino]phenyl]-1-tetrahydropyran-4-yl-piperidine-4-carboxamide]	0.0398 to 0.316	25.1 to 158
Cc1cccc(-c2nccc(Nc3ccnc(Nc4ccc(C5=CCC(NC(C)C)CC5)cc4)n3)n2)n1 (centres unmarked) [Compound 358, N2-[4-[4-(isopropylamino)cyclohexen-1-yl]phenyl]-N4-[2-(6-methyl-2-pyridyl)pyrimidin-4-yl]pyrimidine-2,4-diamine]	0.0398 to 0.316	200 to 1260
Cc1cccc(-c2nccc(Nc3ccnc(Nc4ccc(CN5CCNCC5)cc4)n3)n2)n1 [Compound 359, N4-[2-(6-methyl-2-pyridyl)pyrimidin-4-yl]-N2-[4-(piperazin-1-ylmethyl)phenyl]pyrimidine-2,4-diamine]	0.0398 to 0.316	25.1 to 158
Cc1cccc(-c2nccc(Nc3ccnc(Nc4ccc(C)c(CN5CCSCC5)c4)n3)n2)n1 [Compound 361, N4-[2-(6-methyl-2-pyridyl)pyrimidin-4-yl]-N2-[4-methyl-3-(thiomorpholinomethyl)phenyl] pyrimidine-2,4-diamine]	0.0398 to 0.316	25.1 to 158
Cc1cccc(-c2nccc(Nc3ccnc(Nc4cccc(CN5CCNCC5)c4)n3)n2)n1 [Compound 362, N4-[2-(6-methyl-2-pyridyl)pyrimidin-4-yl]-N2-[3-(piperazin-1-ylmethyl)phenyl]pyrimidine-2,4-diamine]	0.0398 to 0.316	25.1 to 158
Cc1cccc(-c2nccc(Nc3ccnc(Nc4ccc(NS(=O)(=O)CCN)cc4)n3)n2)n1 [Compound 363, 2-amino-N-[4-[[4-[[2-(6-methyl-2-pyridyl)pyrimidin-4-yl]amino]pyrimidin-2-yl]amino]phenyl] ethanesulfonamide]	0.398 to 3.16	200 to 1260
Cc1cccc(-c2nccc(Nc3ccnc(Nc4csc(NC(=O)C5CCNC5)c4)n3)n2)n1 (centres unmarked) [Compound 364, N-[4-[[4-[[2-(6-methyl-2-pyridyl)pyrimidin-4-yl]amino]pyrimidin-2-yl]amino]-2-thienyl]pyrrolidine-3-carboxamide]	≤ 0.0316	≤ 20
Cc1cccc(-c2nccc(Nc3ccnc(Nc4ccc(N5CCN(C6CCOC6=O)CC5)cc4)n3)n2)n1 (centres unmarked) [Compound 365, 3-[4-[4-[[4-[[2-(6-methyl-2-pyridyl)pyrimidin-4-yl]amino]pyrimidin-2-yl]amino]phenyl]piperazin-1-yl]tetrahydrofuran-2-one]	0.0398 to 0.316	≤ 20
Cc1cccc(-c2nccc(Nc3ccnc(Nc4ccc(CN5CCOCC5)cc4)n3)n2)n1 [Compound 366, N4-[2-(6-methyl-2-pyridyl)pyrimidin-4-yl]-N2-[4-(morpholinomethyl)phenyl] pyrimidine-2,4-diamine]	0.0398 to 0.316	25.1 to 158
CNC(=O)[C@@H]1CN(c2ccc(Nc3nccc(Nc4ccnc(-c5cccc(C)n5)n4)n3)cc2)CCN1 [Compound 367, (2S)-N-methyl-4-[4-[[4-[[2-(6-methyl-2-pyridyl)pyrimidin-4-yl]amino]pyrimidin-2-yl]amino]phenyl]piperazine-2-carboxamide]	0.0398 to 0.316	25.1 to 158
